Legend:
mouse HTR1B = target: T1, mouse HTR1B (Mus musculus, UniProt P28334); assay: [3H]-5-HT competition binding, membranes of HEK293T cells overexpressing murine HTR1B; settings: competition of 25 nM [3H]-5-HT; for Log IC50: log value
T1 construct: The full-length murine or human serotonin receptor 1b (Htr1b); Myc-DDK; host or cells: HEK293T (transient, Lipofectamine LTX); isolated membranes
Experimental: (§1) Radioactivity captured on the filters was counted using a SL300 scintillation counter (Hidex). […] Log EC50 were determined by Non-linear regression curve analysis.

HTR1B = assay: Saa3 mRNA in primary mouse calvaria osteoblasts from Htr1b+/+ or Htr1b-/- mice; type: cell-based; settings: 25 nM, 24 h; for Saa3 expression in mouse osteoblasts: Htr1b+/+ osteoblasts
Experimental: Primary calvaria-derived osteoblasts were prepared from calvaria of 2-3 day-old newborns as previously described (Rached M-T, et al. FoxO1 Is a Positive Regulator of Bone Formation by Favoring Protein Synthesis and Resistance to Oxidative Stress in Osteoblasts. Cell Metabolism. Elsevier Ltd; 2010; 11:147-60.). Briefly, mice calvaria were sequentially digested for 20, 40, and 90 min at 37° C. in alpha-MEM (Gibco) 10% FBS containing 0.1 mg/ml of collagenase P (Worthington) and 0.25% trypsin (Gibco). Cells of the first two digests were discarded, whereas cells released from the third digestion were plated and differentiated for 7-10 days as previously described.
(§2) RNA isolation, cDNA preparation and real-time PCR analyses were carried out following standard protocols. Total RNA from cortical bone (clean, flushed femurs, were centrifugated 20 seconds at 10.000 g's to remove any remaining BM) was extracted using TRIzol (Invitrogen) followed by RNA clean-up using PureLink RNA Mini Kit (Ambion, Invitrogen). mRNA was reversed transcribed using random hexamers RNA-to-cDNA kit (Takara). Specific forward and reverse primers were used in conjunction with PowerUp SYBR Green Master Mix (Applied Biosystems) for quantitative PCR. Expression levels were analyzed using the 2^−ΔΔCt method and were normalized for the expression of the housekeeping gene Hprt unless otherwise stated.

[1] = tested on: patient-derived AML cells; assay: Patient-derived AML xenograft in NSG mice, epacadostat chow and/or Ara-C; type: in vivo, mouse; settings: day 22 after initiating therapy; Ara-C 60 mg/kg/day x 5 days, epacadostat chow 1.6 g/kg 3 weeks
Experimental: (§3) Epacadostat (AdooQ Cat #A15554)-treatment: for the WT C57BL/6J mice, treatment started at the same time than MLL/AF9 cells were transplanted. For the patient-derived AML cells (PDX) transplanted into NSG mice, treatment started 8 weeks after transplant, at the same time than Ara-C and during 3 weeks. Mice were supplied with ad libitum epacadostat-supplemented diet (Research Diets Inc.) at 800 mg/kg (low-dose) or 1.6 g/kg (high-dose). For the PDX transplanted into NSGS mice, treatment started 3 weeks after transplant, by daily gavage at 300 mg/kg (InvivoChem Cat #: V0942, dissolved in 10% DMSO, 40% PEG 300 and 50% NaCl 0.9%) for 2 weeks.
For the combination therapy (Epacadostat+chemotherapy) performed at the University of Pennsylvania, patient-derived AML cells were transplanted as previously reported (48). Briefly 6 weeks old NSG males were sublethally treated with busulfan (30 mg/kg) 24 h before transplant and 5×10^6 patient-derived AML cells were injected i.v. Engraftment was assessed, and mice were randomized at 7.5 weeks by BM aspirate as previously described. Randomized mice were treated with vehicle, cytosine arabinoside (Ara-C, 60 mg/kg/day×5 days i.p.), epacadostat chow (1.6 g/kg ad libitum) or both Ara-C and epacadostat chow for 3 weeks.

5-HT1B receptor = target: T2, 5-HT1B receptor (Homo sapiens, UniProt P28222); assay: GloSensor Gi/o-mediated cAMP inhibition assay in HEK293T cells; type: cell-based
T2 construct: expressed in transfected cells; host or cells: HEK293T (transient co-transfection with GloSensor cAMP plasmid)
T2 sequence (P28222 whole entry): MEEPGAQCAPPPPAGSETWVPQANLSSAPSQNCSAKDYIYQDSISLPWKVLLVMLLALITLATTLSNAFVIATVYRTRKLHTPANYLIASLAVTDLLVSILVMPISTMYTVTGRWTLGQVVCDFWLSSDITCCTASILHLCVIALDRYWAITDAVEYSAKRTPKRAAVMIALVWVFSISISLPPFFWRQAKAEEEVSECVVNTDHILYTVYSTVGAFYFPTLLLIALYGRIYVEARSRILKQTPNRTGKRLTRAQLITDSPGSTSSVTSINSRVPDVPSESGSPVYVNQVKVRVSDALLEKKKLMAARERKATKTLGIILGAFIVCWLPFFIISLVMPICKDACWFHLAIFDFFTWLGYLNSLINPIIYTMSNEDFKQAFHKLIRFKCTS

human HTR1B [2] = target: T3, human HTR1B (Homo sapiens, UniProt P28222); settings: competition of 25 nM [3H]-5-HT
T3 sequence (P28222 whole entry): as above
Experimental: The full-length murine or human serotonin receptor 1b (Htr1b) (pCMV6-Entry vector, Myc-DDK-tagged, Origene, Cat #MR222524 and RC223874 respectively) were transiently transfected into HEK293T cells using Lipofectamine LTX (Invitrogen). Transfection efficiency was assessed 24 h post-transfection by flow cytometry using the anti-Flag antibody (Sigma-Aldrich Cat #F3165, RRID: AB_259529). […] Reactions were stopped by the addition of ice-cold PBS, filtered through 0.7 μm glass fiber filters (Data Support Company). Filters were dried and melted with scintillation cocktail. Radioactivity captured on the filters was counted using a SL300 scintillation counter (Hidex). […] Log EC50 were determined by Non-linear regression curve analysis.

[3] = tested on: leukemic blasts (hCD45+hCD33+); assay: Kyn injection in low AML burden PDX mice; type: in vivo, mouse; settings: Kyn 20 mg/kg, 1 week
Experimental: 4-6 weeks old NSG (CDX model) or NSGS (PDX model) mice were pre-conditioned with sublethal (1.4 Gy) total-body irradiation. 24 h after, 1×10^6 OCI-AML3 or 2×10^5 human BM CD34^+ (healthy) or primary AML patient samples were injected i.v. Engraftment levels were monitored and mice were randomized after BM aspiration 3-4 weeks later and immunophenotyped by the presence of mCD45 (BioLegend Cat #103133, RRID: AB_10899570), hCD45 (BioLegend Cat #368512, RRID: AB_2566372), hCD33 (BioLegend Cat #303404, RRID: AB_314348), hCD34 (BioLegend Cat #343518, RRID: AB_1937203) cell populations. For the low-burden PDX model (kynurenine injections), mice were treated 1 week after transplant.
Quantification in serum from peripheral blood (mice) or BM plasma (patients) of Kyn and Trp was assessed by ELISA using independent kits (ImmunoSmol) as per manufacturer's instructions. The ratio between Kyn and Trp levels is shown. SAA3 in serum (murine SAA3 ELISA Kit Millipore) and SAA1 in patient BM plasma (Amyloid A1 DuoSet ELISA Kit (R&D) were assessed as per manufacturer's instructions.
Cell labelling was done by i.p. injection of mice with 50 mg/kg of freshly prepared 5-Ethynyl-2′-deoxyuridine-Edu-(Cayman Chemical Company Cat #20518). After 3-4 h, BM was harvested, and human cells were negatively selected by mouse cell depletion using mouse CD45 magnetic beads (Miltenyi). The human BM cells were then stained CD45 and CD33 to identify the leukemic blast. Cell cycle/proliferation analysis was performed using the Click-iT Plus EdU Flow Cytometry Assay Kit (Invitrogen, Cat #C10420) following manufacturers' instructions. Fixable viability dye (Biolegend) was used to discriminate the death population. Single color controls were used to set compensations and fluorescence minus one control were used to set gates. Analysis was performed with FlowJo software.

human HTR1B [4] = target: T3, human HTR1B; assay: [3H]-GR125743 competitive radioligand binding, HTR1B membranes from HEK293T stable transfectants; settings: [3H]-GR125743, human HTR1B
Experimental: [^3H]-GR125743 (PerkinElmer) radioligand binding assays were performed in standard binding buffer (50 mM Tris, 10 mM MgCl2, 0.1 mM EDTA, 0.1% BSA, 0.01% ascorbic acid, pH 7.4). Competitive binding was assessed with various concentrations of test compounds (0.3 nM to 100 μM), [^3H]-GR125743 (1.38 nM), and HTR1B membranes (isolated from HEK293T stable transfectants) in a total volume of 150 μL. Assay plates were incubated in the dark for 1 h at RT and reactions were stopped by filtration onto 0.3% polyethyleneimine pre-soaked 96-well Filtermat A (PerkinElmer), followed with three quick washes with cold wash buffer (50 mM Tris, pH 7.4). Filters were dried and melted with scintillation cocktail (Meltilex, PerkinElmer). Radioactivity was counted using a Wallac TriLux Microbeta counter (PerkinElmer).

[5] = tested on: serotonin-HTR1B signaling; assay: Gene expression in bone of treated mice (targets of serotonin-HTR1B signaling); type: in vivo, mouse; settings: for expression of Cyclins D1, D2 and E1 in bone: treated versus vehicle-treated mice
Experimental: as §2

murine HTR1B receptor = target: T4, murine HTR1B receptor (Mus musculus, UniProt P28334); assay: [3H]-Kyn binding to Htr1b-overexpressing HEK293T membranes with increasing SB9
T4 construct: The full-length murine or human serotonin receptor 1b (Htr1b); Myc-DDK; host or cells: HEK293T (transient, Lipofectamine LTX); isolated membranes
T4 sequence (P28334 whole entry): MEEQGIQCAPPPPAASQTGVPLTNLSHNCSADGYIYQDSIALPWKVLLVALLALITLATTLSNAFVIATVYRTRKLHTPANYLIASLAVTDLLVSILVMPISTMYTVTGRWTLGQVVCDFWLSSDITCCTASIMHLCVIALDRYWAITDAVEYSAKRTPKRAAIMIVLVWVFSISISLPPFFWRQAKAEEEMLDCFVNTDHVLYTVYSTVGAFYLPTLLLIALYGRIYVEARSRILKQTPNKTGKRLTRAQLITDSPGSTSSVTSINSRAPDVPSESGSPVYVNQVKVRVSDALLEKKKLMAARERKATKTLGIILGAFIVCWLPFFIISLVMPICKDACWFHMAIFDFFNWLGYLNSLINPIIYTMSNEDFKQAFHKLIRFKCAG
Experimental: as §1

MLL/AF9 AML cells = assay: MLL/AF9 syngeneic leukemia model in non-irradiated WT mice; type: in vivo, mouse
Experimental: PTH bone-anabolic treatment: mice were injected intraperitoneally (i.p.) with PTH (Bachem) at 80 μg/kg/day in PBS. Injections started 1 week before MLL/AF9 injection and continued along 2-3 more weeks until mice were harvest.
SB224289-SB9-(TOCRIS Cat #1221) treatment: mice were injected intraperitoneally (i.p.) daily with SB9 (5 mg/kg in 0.9% NaCl) 1 week after leukemia injection and for the duration of the experiment. Assuming a 20 g body weight (BW) and a 2 ml total blood volume per mouse—as well as an even distribution of the drug-systemic concentration of SB9 should be approximately 50 μg/ml. Based on the MW of SB9 (557.09), the final concentration—at equal distribution—in blood should be 8.97521e-05 M (≈90 μM).
as §3
(§4) All leukemia models were introduced by intravenous (i.v.) injection and transplanted into non-irradiated secondary recipient experimental animals. BALB/c mice were used for the WEHI-3B leukemia model (0.5×10^6/cells/mouse) and C57BL/6J mice for MLL/AF9-dsRed (0.2×10^6/cells/mouse). Leukemia progression was assessed by fluorescence (MLL/AF9 dsRed) using the IVIS-Spectrum Optical Imaging System (Caliper, Perkin Elmer). Mice were shaved to reduce light attenuation.

IDO1 = assay: CRISPR/Cas9 Ido1 editing of primary murine MLL/AF9 cells; type: cell-based, mouse; settings: for deletion efficiency: Ido1 exon 3, MLL/AF9 cells
Experimental: (§5) The chemically modified sgRNAs targeting IDO1 were obtained and designed with at least 3 mismatches to decrease possible off target effects with the Synthego CRISPR design tool or the CRISPOR. […] In addition, lack of random effects due to TP53 activation, was shown by p16 and p21 mRNA level assessment in Cas9-only controls as well as in all the sgRNAs used. For 10^6 cells, 3 μg of TrueCut Cas9 protein V2 (Invitrogen) and 1.5 μg sgRNA were mixed in either SE (immortalized cell lines WEHI-3B and OCI-AML3) or P3 (primary mouse MLL/AF9 or patient-derived AML cells) buffer (Lonza, Amaxa X-Nucleofector Kit) and incubated 10 mins. Cells were then resuspended in their respective nucleofection buffer, mixed with the Cas9/sgRNA RNP complex or the Cas9 only as control, and electroporated with the Lonza 4D-Nucleofector (program DZ100, CM137 or DI100). After electroporation, cells were cultured in their respective media at 37° C. until sequencing analysis and/or injection. The editing efficiency data, indel contribution and Sanger sequence analyses were performed with the Synthego Performance Analysis, ICE Analysis. 2019. v2.0. (Synthego).

MLL/AF9 cells = assay: Transplant of Ido1-edited MLL/AF9 cells into WT non-irradiated recipients; type: in vivo, mouse; settings: for disease progression: exon-3-edited MLL/AF9 cells versus Cas9-only
WEHI-3B = assay: Transplant of Ido1-edited WEHI-3B cells into mice; type: in vivo, mouse; settings: edited WEHI-3B cells versus Cas9-only
Experimental: as §4
as §5, with “After electroporation, cells were cultured in their respective media at 37° C. until sequencing analysis and/or injection. The editing efficiency data, indel contribution and Sanger sequence analyses were performed with the Synthego Performance Analysis, ICE Analysis. 2019. v2.0. (Synthego).” left out

T1 sequence (P28334 whole entry): as above

Molecule: NCCc1c[nH]c2ccc(O)cc12 [5-HT, 5-hydroxytryptamine]
- IC50 (mouse HTR1B): 0.0811 µM
- Log IC50 (mouse HTR1B): −7.091 M
- Saa3 expression in mouse osteoblasts (HTR1B): no effect

Molecule: Nc1ccn([C@@H]2O[C@H](CO)[C@@H](O)[C@@H]2O)c(=O)n1 [Ara-C, cytosine arabinoside]
- leukemic burden in BM [1]: modest decrease in overall leukemic burden
- leukemic burden in spleen [1]: more sustained in the spleen than in BM

Molecule: Nc1ccccc1C(=O)CC(N)C(=O)O (stereo not drawn) [Kyn, kynurenine]
- mode of action on Gi/o-mediated cAMP production through HTR1B (5-HT1B receptor): partial agonist
- EC50 (5-HT1B receptor; cAMP Gi agonist, human HTR1B): 0.772 µM
- Log EC50 (5-HT1B receptor; log value, cAMP Gi agonist, human HTR1B): −6.113 M
- IC50 (mouse HTR1B): 54.1 µM
- Log IC50 (mouse HTR1B): −4.267 M
- IC50 (human HTR1B [2]): 24.4 µM
- Log IC50 (human HTR1B [2]; log value): −4.612 M
- AML burden in BM and SP [3]: increased
- proliferative capacity of the leukemic blasts [3]: increases
- serum SAA3 [3]: increases
- Saa3 expression in Htr1b-/- primary osteoblasts (HTR1B): failed to upregulate
- Saa3 expression in mouse osteoblasts (HTR1B): potently upregulated
- Ki (human HTR1B [4]): 17.3 µM
- Log Ki (human HTR1B [4]; log value): −4.762 M

Molecule: Cc1nc(-c2ccc(-c3ccc(C(=O)N4CCc5cc6c(cc54)C4(CCN(C)CC4)CO6)cc3)c(C)c2)no1 [SB224289, 1′-methyl-5-[[2′-methyl-4“-(5-methyl-1,2,4-oxadiazol-3-yl)biphenyl-4-yl]carbonyl]-2,3,6,7-tetrahydro-spiro[furo[2,3-f]indole-3,4-”piperidine]]
- IC50 (mouse HTR1B): 1.27 µM
- Log IC50 (mouse HTR1B): −5.896 M
- expression of Col1a1 in bone ([5]; control osteoblast-specific gene): not affected
- expression of Cyclins D1, D2 and E1 in bone [5]: upregulated
- effect on Kyn binding to the murine HTR1B receptor (murine HTR1B receptor; at ~90 μM, concentration equal to the one administered in vivo): no effect
- IC50 (murine HTR1B receptor; competition of [3H]-Kyn (50 μM), mouse HTR1B): 7720 µM
- survival (MLL/AF9 AML cells; SB9 5 mg/kg i.p. daily versus vehicle): significant increase in survival

Molecule: sgRNA #146: mouse sgRNA targeting Ido1 exon 3: CGCCAUGGUGAUGUACCCCA GGG (guide CGCCAUGGUGAUGUACCCCAGGG; listed as RNA, chemistry not fully specified)
- deletion efficiency (IDO1): ~56%
- disease progression (MLL/AF9 cells): abrogated
- survival (WEHI-3B): significant increased survivals

Molecule: sgRNA #196: mouse sgRNA targeting Ido1 exon 3: CUGCCCACACUGAGCACGGA CGG (guide CUGCCCACACUGAGCACGGACGG; listed as RNA, chemistry not fully specified)
- deletion efficiency (IDO1): ~40%
- disease progression (MLL/AF9 cells): significantly attenuated

Molecule: sgRNA #203: mouse sgRNA targeting Ido1 exon 3: CAGUCCGUCCGUGCUCAGUG TGG (guide CAGUCCGUCCGUGCUCAGUGTGG; modified_base 21 OTHER; thymine)
- deletion efficiency (IDO1): ~40%
- disease progression (MLL/AF9 cells): significantly attenuated

Molecule: sgRNA #610: mouse sgRNA targeting Ido1 exon 4: UAGGGAACAGCAAUAUUGCG GGG (guide UAGGGAACAGCAAUAUUGCGGGG; listed as RNA, chemistry not fully specified)
- MLL/AF9 cells efficiently targeted (IDO1; Ido1 exon 4): ~70%
- loss of expression of Ido1 at the mRNA level (IDO1; Ido1 exon 4, MLL/AF9 cells): 70%
- mice with complete protection against leukemia progression that survived (MLL/AF9 cells; exon-4-edited MLL/AF9 cells): 36%
- survival (MLL/AF9 cells; exon-4-edited MLL/AF9 cells versus Cas9-only): significant increase in survival

B1: parathyroid hormone (peptide, UniProt P01270 32-115, looked up)
Parathyroid hormone: SVSEIQLMHNLGKHLNSMERVEWLRKKLQDVHNFVALGAPLAPRDAGSQRPRKKEDNVLVESHEKSLGEADKADVNVLTKAKSQ
modifications: Parathyroid hormone
notes: intermittent parathyroid hormone (Bachem), increases osteoblast numbers
- expression of Cyclins D1, D2 and E1 in bone [5]: did not change
- leukemia growth, disease progression and lifespan (MLL/AF9 AML cells; PTH 80 μg/kg/day i.p. versus vehicle): failed to curtail leukemia growth
